Assay [1] has as its target T1, isolated kinase domain of the human FLT3 receptor (a.a. 571-993) (Homo sapiens, UniProt P36888).
T1 construct: human FLT3 receptor (a.a. 571-993)
T1 sequence (P36888 571-993): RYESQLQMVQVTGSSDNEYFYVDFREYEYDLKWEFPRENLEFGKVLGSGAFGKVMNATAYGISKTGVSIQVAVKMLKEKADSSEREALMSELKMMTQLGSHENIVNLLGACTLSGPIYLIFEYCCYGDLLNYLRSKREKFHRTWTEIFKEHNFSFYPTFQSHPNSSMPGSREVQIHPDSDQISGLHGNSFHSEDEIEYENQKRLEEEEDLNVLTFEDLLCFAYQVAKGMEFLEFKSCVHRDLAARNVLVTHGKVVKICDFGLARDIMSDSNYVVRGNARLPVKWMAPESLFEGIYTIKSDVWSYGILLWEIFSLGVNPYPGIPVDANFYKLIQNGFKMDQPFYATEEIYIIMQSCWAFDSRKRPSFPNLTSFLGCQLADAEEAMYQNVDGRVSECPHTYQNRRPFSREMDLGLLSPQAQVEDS
As to the kind of experiment: FLT3 fluorescence polarization kinase assay. In kind it is biochemical. Particulars: 150 uM ATP; uncertainty ±10%; read-out: Flt-3 IC50. The text has this: The FLT3 FP assay utilizes the fluorescein-labeled phosphopeptide and the anti-phosphotyrosine antibody included in the Panvera Phospho-Tyrosine Kinase Kit (Green) supplied by Invitrogen. When FLT3 phosphorylates polyGlu4Tyr, the fluorescein-labeled phosphopeptide is displaced from the anti-phosphotyrosine antibody by the phosphorylated poly Glu4Tyr, thus decreasing the FP value. […] The kinase reaction is stopped with the addition of EDTA. The fluorescein-labeled phosphopeptide and the anti-phosphotyrosine antibody are added and incubated for 30 minutes at room temperature.
Data points are an average of triplicate samples. Inhibition and IC50 data analysis was done with GraphPad Prism using a non-linear regression fit with a multiparamater, sigmoidal dose-response (variable slope) equation.
In general terms: Fluorescence polarisation rises when a labelled molecule tumbles more slowly, as on binding a larger partner.

Assay [2] addresses T2, wild-type FLT3 phosphorylation in Baf3 FLT3 cells (Homo sapiens, UniProt P36888).
T2 construct: host or cells: Baf3 (murine B cell lymphoma line)
T2 sequence (P36888 27-993): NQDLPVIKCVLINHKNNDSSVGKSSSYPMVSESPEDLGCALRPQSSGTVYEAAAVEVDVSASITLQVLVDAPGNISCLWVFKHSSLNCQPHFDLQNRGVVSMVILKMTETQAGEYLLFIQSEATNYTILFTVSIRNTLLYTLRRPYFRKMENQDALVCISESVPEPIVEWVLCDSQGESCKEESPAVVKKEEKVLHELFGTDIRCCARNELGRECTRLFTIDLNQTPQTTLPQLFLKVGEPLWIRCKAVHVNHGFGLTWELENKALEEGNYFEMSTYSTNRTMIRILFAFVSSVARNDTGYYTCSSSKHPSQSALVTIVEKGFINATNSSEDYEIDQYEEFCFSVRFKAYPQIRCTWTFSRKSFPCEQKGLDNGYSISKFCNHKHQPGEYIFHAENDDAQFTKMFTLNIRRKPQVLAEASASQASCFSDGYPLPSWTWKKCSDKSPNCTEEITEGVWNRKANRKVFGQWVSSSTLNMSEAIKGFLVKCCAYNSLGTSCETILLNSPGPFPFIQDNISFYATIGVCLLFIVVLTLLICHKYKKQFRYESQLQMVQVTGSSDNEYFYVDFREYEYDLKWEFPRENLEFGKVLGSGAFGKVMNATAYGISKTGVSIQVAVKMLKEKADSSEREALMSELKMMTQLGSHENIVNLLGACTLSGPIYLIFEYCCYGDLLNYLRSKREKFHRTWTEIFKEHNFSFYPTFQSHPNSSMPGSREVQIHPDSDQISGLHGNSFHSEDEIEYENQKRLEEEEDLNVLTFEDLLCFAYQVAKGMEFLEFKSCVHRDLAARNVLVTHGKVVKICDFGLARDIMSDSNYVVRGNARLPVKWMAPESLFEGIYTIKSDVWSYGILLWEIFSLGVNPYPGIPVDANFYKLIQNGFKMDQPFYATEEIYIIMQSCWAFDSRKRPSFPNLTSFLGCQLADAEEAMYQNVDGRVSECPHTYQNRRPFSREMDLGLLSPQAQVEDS
As to the kind of experiment: Cell-based FLT3 receptor ELISA. The conditions noted are these: uncertainty ±20%. The text has this: Data points are an average of triplicate samples. […] Leukemia.
On the technique in general: In an ELISA, binding on a coated surface is turned into a signal by an enzyme label.

In the next assay the test system is MV4-11 cells. As to the kind of experiment: Inhibition of MV4-11 cell proliferation (CellTiterGlo). Particulars: Homo sapiens, 72 hours growth, uncertainty ±20%. In kind it is cell-based. How it is done:
To assess the cellular potency of compounds of the present invention, FLT3 specific growth inhibition was measured in the leukemic cell line MV4-11 (ATCC Number: CRL-9591). […] MV4-11 cells cannot grow and survive without active FLT3ITD.
To measure proliferation inhibition by compounds of the present invention, the luciferase based CellTiterGlo reagent (Promega), which quantifies total cell number based on total cellular ATP concentration, was used. Cells are plated at 10,000 cells per well in 100 ul of in RPMI media containing penn/strep, 10% FBS and 1 ng/ml GM-CSF or 1 ng/ml IL-3 for MV4-11 and Baf3 cells respectively.
Compound dilutions or 0.1% DMSO (vehicle control) are added to cells and the cells are allowed to grow for 72 hours at standard cell growth conditions (37° C., 5% CO2). For activity measurements in MV4-11 cells grown in 50% plasma, cells were plated at 10,000 cells per well in a 1:1 mixture of growth media and human plasma (final volume of 100 μL). To measure total cell growth an equal volume of CellTiterGlo reagent was added to each well, according to the manufacturer's instructions, and luminescence was quantified. Total cell growth was quantified as the difference in luminescent counts (relative light units, RLU) of cell number at Day 0 compared to total cell number at Day 3 (72 hours of growth and/or compound treatment). One hundred percent inhibition of growth is defined as an RLU equivalent to the Day 0 reading. Zero percent inhibition was defined as the RLU signal for the DMSO vehicle control at Day 3 of growth.
Data points are an average of triplicate samples. […] Inhibition and IC50 data analysis was done with GraphPad Prism using a non-linear regression fit with a multiparamater, sigmoidal dose-response (variable slope) equation. MV4-11 cells express the FLT3 internal tandem duplication mutation, and thus are entirely dependent upon FLT3 activity for growth. […] In contrast, the Baf3 cell proliferation is driven by the cytokine IL-3 and thus is used as a non-specific toxicity control.
On the technique in general: ATP-based viability assays read luminescence as a measure of living cells.

Counter-ions that a name gives are not always drawn.

For 18 molecules, IC50 results are on record in patent publication US8557847B2, “Synergistic modulation of FLT3 kinase using a FLT3 inhibitor and a farnesyl transferase inhibitor” (Janssen Pharmaceutica, N.V., priority 2005, dated 2013).

With `N#Cc1c[nH]c(C(=O)Nc2ccc(C3CCN(C(CO)CO)CC3)cc2C2=CCCCC2)n1` [Compound 6, 4-Cyano-1H-imidazole-2-carboxylic acid {2-cyclohex-1-enyl-4-[1-(2-hydroxy-1-hydroxymethyl-ethyl)-piperidin-4-yl]-phenyl}-amide trifluoroacetic acid salt], the IC50 in assay [1] amounted to 82 nM.
On to `Cc1ccccc1-c1cc(N2CCN(C)CC2)ccc1NC(=O)c1ccc(C#N)o1` [Compound 9, 5-Cyano-furan-2-carboxylic acid [2′-methyl-5-(4-methyl-piperazin-1-yl)-biphenyl-2-yl]-amide], for which the IC50 in assay [1] amounted to 97 nM.
Consider `CN1CCN(c2ccc(NC(=O)c3ccc(C#N)o3)c(C3=CCCCC3)c2)CC1` [Compound 11, 5-Cyano-furan-2-carboxylic acid [2-cyclohex-1-enyl-4-(4-methyl-piperazin-1-yl)-phenyl]-amide], for which the IC50 in assay [2] was determined as 1300 nM; in assay [1], 260 nM.
As to `CN1CCN(c2ccc(NC(=O)c3ccc(C#N)o3)c(C3=CCOCC3)c2)CC1` [Compound 12], the IC50 in assay [1] was determined as 1240 nM.
The same measure, in the same setting: the same measure for `N#Cc1c[nH]c(C(=O)Nc2ccc(C3CCNCC3)cc2C2=CCCCC2)c1` [Compound 13, 4-Cyano-1H-pyrrole-2-carboxylic acid (2-cyclohex-1-enyl-4-piperidin-4-yl-phenyl)-amide trifluoroacetic acid salt]: 34 nM.
For `CC(=O)N1CCC(c2ccc(NC(=O)c3nc(C#N)c[nH]3)c(C3=CCCCC3)c2)CC1` [Compound 16, 4-Cyano-1H-imidazole-2-carboxylic acid [4-(1-acetyl-piperidin-4-yl)-2-cyclohex-1-enyl-phenyl]-amide], the IC50 in assay [1] worked out at 39 nM.
The same measure, in the same setting: the same measure for `CC1CC=C(c2cc(C3CCNCC3)ccc2NC(=O)c2nc(C#N)c[nH]2)CC1` (centres unmarked) [Compound 17, 4-Cyano-1H-imidazole-2-carboxylic acid [2-(4-methyl-cyclohex-1-enyl)-4-piperidin-4-yl-phenyl]-amide trifluoroacetic acid salt]: 13 nM; for `CS(=O)(=O)CC(=O)N1CCC(c2ccc(NC(=O)c3nc(C#N)c[nH]3)c(C3=CCCCC3)c2)CC1` [Compound 20, 4-Cyano-1H-imidazole-2-carboxylic acid {2-cyclohex-1-enyl-4-[1-(2-methanesulfonyl-acetyl)-piperidin-4-yl]-phenyl}-amide]: 130 nM; for `Cn1ccnc1CN1CCC(c2ccc(NC(=O)c3nc(C#N)c[nH]3)c(C3=CCCC3)c2)CC1` [Compound 23, 4-Cyano-1H-imidazole-2-carboxylic acid {2-cyclopent-1-enyl-4-[1-(1-methyl-1H-imidazol-2-ylmethyl)-piperidin-4-yl]-phenyl}-amide trifluoroacetic acid salt]: 16 nM.
As for `N#Cc1c[nH]c(C(=O)Nc2ccc(C3CCN(C(N)=O)CC3)cc2C2=CCCCC2)n1` [Compound 24, 4-{4-[(4-Cyano-1H-imidazole-2-carbonyl)-amino]-3-cyclohex-1-enyl-phenyl}-piperidine-1-carboxylic acid amide], the IC50 in assay [1] worked out at 370 nM.
Same read-out and setting: the same measure for `N#Cc1c[nH]c(C(=O)Nc2ccc(C3CCN(CCO)CC3)cc2C2=CCCCC2)n1` [Compound 26, 4-Cyano-1H-imidazole-2-carboxylic acid {2-cyclohex-1-enyl-4-[1-(2-hydroxy-ethyl)-piperidin-4-yl]-phenyl}-amide trifluoroacetic acid salt]: 53 nM.
In turn, `N#Cc1c[nH]c(C(=O)Nc2ccc(C3CCN(CCN4CCOCC4)CC3)cc2C2=CCCCC2)n1` [Compound 34, 4-Cyano-1H-imidazole-2-carboxylic acid {2-cyclohex-1-enyl-4-[1-(2-morpholin-4-yl-ethyl)-piperidin-4-yl]-phenyl}-amide di-trifluoroacetic acid salt] returned a 50% inhibitory concentration (IC50) in the assay on MV4-11 cells of 8 nM.
Take `N#Cc1c[nH]c(C(=O)Nc2ccc(C3CCS(=O)(=O)CC3)cc2C2=CCCCC2)n1` [Compound 35, 4-Cyano-1H-imidazole-2-carboxylic acid [2-cyclohex-1-enyl-4-(1,1-dioxo-hexahydro-1λ^6-thiopyran-4-yl)-phenyl]-amide]: the IC50 in assay [1] came to 120 nM.
On to `N#Cc1c[nH]c(C(=O)Nc2ccc(C3CCNCC3)cc2C2=CCS(=O)(=O)CC2)n1` [Compound 36, 4-Cyano-1H-imidazole-2-carboxylic acid [2-(1,1-dioxo-1,2,3,6-tetrahydro-1λ6-thiopyran-4-yl)-4-piperidin-4-yl-phenyl]-amide trifluoroacetic acid salt], for which the values for the half-maximal inhibitory concentration (IC50) (in the assay with MV4-11 cells; in assay [1]) were 192 nM and 9100 nM, respectively.
In the assay with MV4-11 cells, `CS(=O)(=O)CCN1CCC(c2ccc(NC(=O)c3nc(C#N)c[nH]3)c(C3=CCCCC3)c2)CC1` [Compound 40, 4-Cyano-1H-imidazole-2-carboxylic acid {2-cyclohex-1-enyl-4-[1-(2-methanesulfonyl-ethyl)-piperidin-4-yl]-phenyl}-amide] showed an IC50 of 116 nM.
Turning to `CC(=O)N1CCC(c2ccc(NC(=O)c3nc(C#N)c[nH]3)c(C3=CCCNC3)c2)CC1` [Compound 46, 4-Cyano-1H-imidazole-2-carboxylic acid [4-(1-acetyl-piperidin-4-yl)-2-(1,2,5,6-tetrahydro-pyridin-3-yl)-phenyl]-amide trifluoroacetic acid salt], the IC50 in assay [1] is 39 nM.
`C[C@@H]1CC(c2ccc(NC(=O)c3ncc(C#N)[nH]3)c(C3=CCCCC3)c2)C[C@H](C)N1` (stereo partly drawn) [Compound 51a, 5-Cyano-1H-imidazole-2-carboxylic acid [2-cyclohex-1-enyl-4-(cis-2,6-dimethyl-piperidin-4-yl)-phenyl]-amide bis trifluoroacetic acid salt]: the IC50 in assay [1] stood at 2.3 nM.
On the same count and under the same terms, the same measure for `CC1(C)CC=C(c2nc(C3CCN(CCS(C)(=O)=O)CC3)ccc2NC(=O)c2nc(C#N)c[nH]2)CC1` [Compound 56, 4-Cyano-1H-imidazole-2-carboxylic acid [6-(4,4-dimethyl-cyclohex-1-enyl)-1′-(2-methanesulfonyl-ethyl)-1′,2′,3′,4′,5′,6′-hexhydro-[2,4]bipyridinyl-5-yl]-amide trifluoroacetic acid salt]: 140 nM.

A word on the IC50: it is the point on the concentration scale where inhibition reaches its midpoint.
